Here are results for 23 molecules from patent US20230077362A1 (CORTEVA AGRISCIENCE LLC, priority 2019, published 2023).

Structures are written as SMILES.

Test [1] relates to Cabbage Looper (Trichoplusia ni) ("CL"), second instar larvae. Put plainly: Bioassay on cabbage looper (CL), 128-well diet tray assay. In kind it is in vivo. Conditions: for CL rating: Table ABC, species CL, C = not tested, D = no activity noticed; for pest or weed control at 50 µg/cm2: Trichoplusia ni, read-out: CL rating. The method in brief:
(§1)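 Read-out: percent larval mortality per well, averaged over 8 wells. Incubation 25° C., 14:10 L:D photoperiod, 5–7 days, trays sealed with clear adhesive cover.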

Test [2] has as its system Beet Armyworm (Spodoptera exigua) ("BAW"), second instar larvae. Put plainly: Bioassay on beet armyworm (BAW), 128-well diet tray assay. In kind it is in vivo. Conditions: for BAW rating: Table ABC, species BAW, C = not tested, D = no activity noticed; for pest or weed control at 50 µg/cm2: Spodoptera exigua, read-out: BAW rating. The method in brief:
as §1

On to `O=C(/N=C1\SCC(=O)N1c1ccccc1COCC(F)(F)F)Nc1ccc(-c2ncn(-c3ccc(C(F)(F)F)cc3)n2)cc1F` [Compound J661], for which, in test [1], the CL rating result was “A (50-100)”. Also, in test [2], the BAW rating result was “A (50-100)”.

Turning to `Cc1ccc(COCC(F)(F)F)c(N2C(=O)CS/C2=N\C(=O)Nc2ccc(-c3ncn(-c4ccc(OC(F)(F)C(F)(F)F)cc4)n3)cc2F)c1` [Compound J662], in test [1], the CL rating entry is on record as “A (50-100)”. In addition, the BAW rating entry in test [2] is reported as “A (50-100)”.

As to `Cc1ccc(C(C)C)c(N2C(=O)CS/C2=N\C(=O)Nc2ncc(-c3ncn(-c4ccc(C(F)(F)F)cc4)n3)cc2C)c1` [Compound J664, (Z)-1-(3-(2-isopropyl-5-methylphenyl)-4-oxothiazolidin-2-ylidene)-3-(3-methyl-5-(1-(4-(trifluoromethyl)phenyl)-1H-1,2,4-triazol-3-yl)pyridin-2-yl)urea], the pest or weed control at 50 µg/cm2 in test [1] and in test [2] was 50 to 100% throughout.

Turning to `O=C(/N=C1\SCC(=O)N1c1cc(F)ccc1COCC(F)(F)F)Nc1ccc(-c2ncn(-c3ccc(S(=O)(=O)C(F)(F)F)cc3)n2)cc1F` [Compound J670, (Z)-1-(3-(5-Fluoro-2-((2,2,2-trifluoroethoxy)methyl)phenyl)-4-oxothiazolidin-2-ylidene)-3-(2-fluoro-4-(1-(4-((trifluoromethyl)sulfonyl)phenyl)-1H-1,2,4-triazol-3-yl)phenyl)urea], the pest or weed control at 50 µg/cm2 in test [1] and in test [2] was 50 to 100% each time.

Take `COCc1ccc(N(C)C)cc1N1C(=O)CS/C1=N\C(=O)Nc1ccc(-c2ncn(-c3ccc(S(=O)(=O)C(F)(F)F)cc3)n2)cc1F` [Compound J671, (Z)-1-(3-(5-(Dimethylamino)-2-(methoxymethyl)phenyl)-4-oxothiazolidin-2-ylidene)-3-(2-fluoro-4-(1-(4-((trifluoromethyl)sulfonyl)phenyl)-1H-1,2,4-triazol-3-yl)phenyl)urea]: the pest or weed control at 50 µg/cm2 in test [1] and in test [2] was 50 to 100% throughout.

For the molecule `CN(C)c1ccc(OCC(F)(F)F)c(N2C(=O)CS/C2=N\C(=O)Nc2ccc(-c3ncn(-c4ccc(S(=O)(=O)C(F)(F)F)cc4)n3)cc2F)c1` [Compound J672, (Z)-1-(3-(5-(Dimethylamino)-2-(2,2,2-trifluoroethoxy)phenyl)-4-oxothiazolidin-2-ylidene)-3-(2-fluoro-4-(1-(4-((trifluoromethyl)sulfonyl)phenyl)-1H-1,2,4-triazol-3-yl)phenyl)urea], the pest or weed control at 50 µg/cm2 in test [1] and in test [2] was 50 to 100% each time.

Turning to `Cc1ccc(Cc2ccc(F)cc2)c(N2C(=O)CS/C2=N\C(=O)Nc2ccc(-c3ncn(-c4ccc(OC(F)(F)F)cc4)n3)cc2F)c1` [Compound J674, (Z)-1-(2-Fluoro-4-(1-(4-(trifluoromethoxy)phenyl)-1H-1,2,4-triazol-3-yl)phenyl)-3-(3-(2-(4-fluorobenzyl)-5-methylphenyl)-4-oxothiazolidin-2-ylidene)urea], the pest or weed control at 50 µg/cm2 in test [1] and in test [2] was 50 to 100% throughout.

Take `Cc1ccc(Cc2cccc(F)c2)c(N2C(=O)CS/C2=N\C(=O)Nc2ccc(-c3ncn(-c4ccc(OC(F)(F)F)cc4)n3)cc2F)c1` [Compound J676, (Z)-1-(2-Fluoro-4-(1-(4-(trifluoromethoxy)phenyl)-1H-1,2,4-triazol-3-yl)phenyl)-3-(3-(2-(3-fluorobenzyl)-5-methylphenyl)-4-oxothiazolidin-2-ylidene)urea]: the pest or weed control at 50 µg/cm2 in test [1] and in test [2] was 50 to 100% each time.

As to `Cc1cccc(N2C(=O)CS/C2=N\C(=O)Nc2ccc(-c3ncn(-c4ccc(C(F)(F)F)cc4)n3)cc2F)c1COCC(F)(F)F` [Compound J677], the CL rating result in test [1] is given as “A (50-100)”. The BAW rating entry in test [2] was “A (50-100)”.

For `Cc1ccc(COCC(F)(F)F)c(N2C(=O)CS/C2=N\C(=O)Nc2ccc(-c3ncn(-c4ccc(OC(F)(F)F)cc4)n3)cc2F)c1C` [Compound J678], the CL rating entry in test [1] is on record as “A (50-100)”. For the same molecule, the BAW rating result in test [2] is “A (50-100)”.

For `Cc1cc(-c2ncn(-c3ccc(OC(F)(F)F)cc3)n2)ccc1NC(=O)/N=C1\SCC(=O)N1c1c(COCC(F)(F)F)ccc(C)c1C` [Compound J679], the CL rating entry in test [1] is on record as “A (50-100)”. Moreover, the BAW rating result in test [2] was “A (50-100)”.

On to `Cc1ccc(COCC(F)(F)F)c(N2C(=O)CS/C2=N\C(=O)Nc2ccc(-c3ncn(-c4ccc(C(F)(F)F)cc4)n3)cc2F)c1C` [Compound J680], for which the CL rating entry in test [1] is listed as “A (50-100)”. Moreover, the BAW rating entry in test [2] is given as “A (50-100)”.

As to `Cc1ccc(COCC(F)(F)F)c(N2C(=O)CS/C2=N\C(=O)Nc2ccc(-c3ncn(-c4ccc(OC(F)(F)C(F)(F)F)cc4)n3)cc2C)c1` [Compound J681], the CL rating entry in test [1] is recorded as “A (50-100)”. Further, the BAW rating result in test [2] is “A (50-100)”.

On to `Cc1cc(-c2ncn(-c3ccc(OC(F)(F)C(F)(F)F)cc3)n2)ccc1NC(=O)/N=C1\SCC(=O)N1c1cccc(C)c1COCC(F)(F)F` [Compound J682], for which the CL rating result in test [1] is on record as “A (50-100)”. Further, the BAW rating result in test [2] is given as “A (50-100)”.

Regarding `Cc1ccc(Cc2ccc(F)cc2)c(N2C(=O)CS/C2=N\C(=O)Nc2ccc(-c3ncn(-c4ccc(S(F)(F)(F)(F)F)cc4)n3)cc2C#N)c1` [Compound J683, (Z)-1-(2-Cyano-4-(1-(4-(pentafluoro-λ^6-sulfaneyl)phenyl)-1H-1,2,4-triazol-3-yl)phenyl)-3-(3-(2-(4-fluorobenzyl)-5-methylphenyl)-4-oxothiazolidin-2-ylidene)urea], the pest or weed control at 50 µg/cm2 in test [1] and in test [2] was 50 to 100% throughout.

For the molecule `COC(C)c1ccc(C)cc1N1C(=O)CS/C1=N\C(=O)Nc1ccc(-n2cnc(-c3ccc(OC(F)(F)F)cc3)n2)cc1F` (stereo not shown) [Compound J685, (Z)-1-(2-Fluoro-4-(3-(4-(trifluoromethoxy)phenyl)-1H-1,2,4-triazol-1-yl)phenyl)-3-(3-(2-(1-methoxyethyl)-5-methylphenyl)-4-oxothiazolidin-2-ylidene)urea], the pest or weed control at 50 µg/cm2 in test [1] and in test [2] was 50 to 100% in each case.

`COC(c1ccc(C)cc1N1C(=O)CS/C1=N\C(=O)Nc1ccc(-n2cnc(-c3ccc(OC(F)(F)F)cc3)n2)cc1F)C(F)(F)F` (stereo not shown) [Compound J687, (Z)-1-(2-Fluoro-4-(3-(4-(trifluoromethoxy)phenyl)-1H-1,2,4-triazol-1-yl)phenyl)-3-(3-(5-methyl-2-(2,2,2-trifluoro-1-methoxyethyl)phenyl)-4-oxothiazolidin-2-ylidene)urea]: the pest or weed control at 50 µg/cm2 in test [1] and in test [2] was 50 to 100% in each case.

In the case of `CN(C)c1ccc(OCC(F)(F)F)c(N2C(=O)CS/C2=N\C(=O)Nc2ccc(-n3cnc(-c4ccc(OC(F)(F)F)cc4)n3)cc2F)c1` [Compound J688, (Z)-1-(3-(5-(Dimethylamino)-2-(2,2,2-trifluoroethoxy)phenyl)-4-oxothiazolidin-2-ylidene)-3-(2-fluoro-4-(3-(4-(trifluoromethoxy)phenyl)-1H-1,2,4-triazol-1-yl)phenyl)urea], the pest or weed control at 50 µg/cm2 in test [1] and in test [2] was 50 to 100% each time.

Turning to `Cc1ccc(COCC(F)(F)F)c(N2C(=O)CS/C2=N\C(=O)Nc2ccc(-n3cnc(-c4ccc(OC(F)(F)F)cc4)n3)cc2F)c1` [Compound J689, (Z)-1-(2-Fluoro-4-(3-(4-(trifluoromethoxy)phenyl)-1H-1,2,4-triazol-1-yl)phenyl)-3-(3-(5-methyl-2-((2,2,2-trifluoroethoxy)methyl)phenyl)-4-oxothiazolidin-2-ylidene)urea], the pest or weed control at 50 µg/cm2 in test [1] and in test [2] was 50 to 100% throughout.

`O=C(/N=C1\SCC(=O)N1c1cc(F)ccc1COCC(F)(F)F)Nc1ccc(-n2cnc(-c3ccc(OC(F)(F)F)cc3)n2)cc1F` [Compound J690, (Z)-1-(3-(5-Fluoro-2-((2,2,2-trifluoroethoxy)methyl)phenyl)-4-oxothiazolidin-2-ylidene)-3-(2-fluoro-4-(3-(4-(trifluoromethoxy)phenyl)-1H-1,2,4-triazol-1-yl)phenyl)urea]: the pest or weed control at 50 µg/cm2 in test [1] and in test [2] was 50 to 100% in each case.

On to `COc1ccc(COCC(F)(F)F)c(N2C(=O)CS/C2=N\C(=O)Nc2ccc(-n3cnc(-c4ccc(OC(F)(F)F)cc4)n3)cc2F)c1` [Compound J691, (Z)-1-(2-Fluoro-4-(3-(4-(trifluoromethoxy)phenyl)-1H-1,2,4-triazol-1-yl)phenyl)-3-(3-(5-methoxy-2-((2,2,2-trifluoroethoxy)methyl)phenyl)-4-oxothiazolidin-2-ylidene)urea], for which the pest or weed control at 50 µg/cm2 in test [1] and in test [2] was 50 to 100% in each case.

On to `Cc1ccc(COCC(F)F)c(N2C(=O)CS/C2=N\C(=O)Nc2ccc(-n3cnc(-c4ccc(OC(F)(F)F)cc4)n3)cc2F)c1` [Compound J692, (Z)-1-(3-(2-((2,2-Difluoroethoxy)methyl)-5-methylphenyl)-4-oxothiazolidin-2-ylidene)-3-(2-fluoro-4-(3-(4-(trifluoromethoxy)phenyl)-1H-1,2,4-triazol-1-yl)phenyl)urea], for which the pest or weed control at 50 µg/cm2 in test [1] and in test [2] was 50 to 100% throughout.

As to `Cc1ccc(OCCC(F)(F)F)c(N2C(=O)CS/C2=N\C(=O)Nc2ccc(-n3cnc(-c4ccc(OC(F)(F)F)cc4)n3)cc2F)c1` [Compound J693, (Z)-1-(2-Fluoro-4-(3-(4-(trifluoromethoxy)phenyl)-1H-1,2,4-triazol-1-yl)phenyl)-3-(3-(5-methyl-2-(3,3,3-trifluoropropoxy)phenyl)-4-oxothiazolidin-2-ylidene)urea], the pest or weed control at 50 µg/cm2 in test [1] and in test [2] was 50 to 100% each time.
